Experimental findings from patent US8586505B2 (SDS Biotech K. K., priority 2009, dated 2013) are described below.

Common to all, as to type: in vivo
The subject of assay [1] is Pseudoperonospora cubensis. The assay can be described thus: Test of examining control effect on Pseudoperonospora cubensis (potted cucumber plants). Particulars: 96 h, 10% wettable powder adjusted to 125 ppm, 15 ml/pot sprayed on potted cucumber plants one day before spray inoculation, assessed after 1 day wet chamber and 3 days greenhouse, read-out: Determination of control effect (preventive value) on Pseudoperonospora cubensis. The gist of the method: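 Cucumber plants (Sagamihanjiro, 2.5-leaf stage) sprayed with 125 ppm compound solution from 10% wettable powder, 15 ml/pot. One day later, spray-inoculated with P. cubensis conidia (1.0×10^4 cells/ml), kept 1 day at 21° C wet, then 3 days in greenhouse. Preventive value derived from lesion area relative to untreated plants.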

A further assay has as its system Phytophthora infestans. The assay can be described thus: whole plant or invertebrate. Particulars: in Solanum lycopersicum, 96 h, read-out: Determination of control effect (preventive value).
The subject of the next assay is Sphaerotheca fuliginea. Kind of assay: Test of examining control effect on Sphaerotheca fuliginea (potted cucumber plants). Particulars: Podosphaera fuliginea, 336 h; 10% wettable powder adjusted to 125 ppm, 15 ml/pot sprayed on potted cucumber plants one day before spray inoculation; assessed after 14 days in greenhouse; read-out: Determination of control effect (preventive value) on Sphaerotheca fuliginea. The gist of the method:
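Cucumber plants (Sagamihanjiro, 2nd leaf stage) sprayed with 125 ppm compound (from 10% wettable powder), inoculated one day later with S. fuliginea conidia (1.0×10^5 cells/ml); lesion area scored after 14 days in greenhouse. Preventive value vs untreated; ≥60% high, <60% low control.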

`Brc1csc(C#CCCNc2ncnc3sccc23)n1` [compound 64]: the pest or weed control at 125 µg/mL in assay [1] was 60 to 100%; in the assay with Sphaerotheca fuliginea, 0 to 60%. The pest or weed control at 125 ppm in the assay on Phytophthora infestans is 0 to 60%.
Take `N#Cc1ccccc1C#CCCNc1ncnc2ccccc12` [compound 102]: the pest or weed control at 125 µg/mL (in assay [1]; in the assay on Sphaerotheca fuliginea) was 60 to 100% in each case. Also, in the assay on Phytophthora infestans, the pest or weed control at 125 ppm is 60 to 100%.
Take `Cc1cc(NCCC#Cc2ccc(Cl)cc2C(F)(F)F)ncn1` [compound 359]: the pest or weed control at 125 µg/mL (in assay [1]; in the assay on Sphaerotheca fuliginea) was 0 to 60% in each case. Also, the pest or weed control at 125 ppm in the assay with Phytophthora infestans was 0 to 60%.
On to `CNC(=O)c1ccc(C#CCCNc2ncnc3ccccc23)cc1` [compound 126], for which the pest or weed control at 125 µg/mL in assay [1] is 60 to 100%; in the assay on Sphaerotheca fuliginea it was 0 to 60%. Further, the pest or weed control at 125 ppm in the assay with Phytophthora infestans is 60 to 100%.
On to `COCc1cccc(F)c1C#CCCNc1ncnc2ccccc12` [compound 141], for which the pest or weed control at 125 µg/mL (in assay [1]; in the assay on Sphaerotheca fuliginea) was 60 to 100% throughout. For the same molecule, in the assay on Phytophthora infestans, the pest or weed control at 125 ppm lay in the range of 60 to 100%.
As to `Cc1ccccc1C#CCCNc1ncnc2sccc12` [compound 17], the pest or weed control at 125 µg/mL (in assay [1]; with Sphaerotheca fuliginea) was 60 to 100% in each case. The pest or weed control at 125 ppm in the assay on Phytophthora infestans lay in the range of 60 to 100%.
For the molecule `C(#Cc1ccccc1)CCNc1ncnc2[nH]ccc12` [compound 379], the pest or weed control at 125 µg/mL in assay [1] lay in the range of 0 to 60%; with Sphaerotheca fuliginea, 60 to 100%. In addition, in the assay with Phytophthora infestans, the pest or weed control at 125 ppm was 0 to 60%.
On to `COc1ccc(C#CCCNc2ncnc3sccc23)cc1` [compound 23], for which the pest or weed control at 125 µg/mL (in assay [1]; in the assay on Sphaerotheca fuliginea) was 60 to 100% in each case. The pest or weed control at 125 ppm in the assay on Phytophthora infestans lay within 60 to 100%.
`CC(CC#Cc1ccccc1CO)Nc1ncnc2sccc12` (stereo not drawn) [compound 243]: the pest or weed control at 125 µg/mL (in assay [1]; in the assay on Sphaerotheca fuliginea) was 60 to 100% each time. For the same molecule, the pest or weed control at 125 ppm in the assay with Phytophthora infestans was 60 to 100%.
As to `COc1nc(C#CCCNc2ncnc3ccccc23)cs1` [compound 212], the pest or weed control at 125 µg/mL (in assay [1]; in the assay on Sphaerotheca fuliginea) was 60 to 100% in each case. The pest or weed control at 125 ppm with Phytophthora infestans was 60 to 100%.
As to `CC(CC#Cc1ccc(C#N)cc1C(F)(F)F)Nc1ncnc2sccc12` (stereo not drawn) [compound 260], the pest or weed control at 125 µg/mL (in assay [1]; in the assay with Sphaerotheca fuliginea) was 60 to 100% throughout. In addition, in the assay with Phytophthora infestans, the pest or weed control at 125 ppm fell in the range of 60 to 100%.
Regarding `Fc1cccc2c(NCCC#Cc3ccccc3C(F)(F)F)ncnc12` [compound 306], the pest or weed control at 125 µg/mL (in assay [1]; with Sphaerotheca fuliginea) was 60 to 100% each time. Further, the pest or weed control at 125 ppm in the assay on Phytophthora infestans was in the range of 60 to 100%.
On to `Fc1ccc(Oc2nc(C#CCCNc3ncnc4ccccc34)cs2)cc1` [compound 226], for which the pest or weed control at 125 µg/mL (in assay [1]; with Sphaerotheca fuliginea) was 60 to 100% each time. The pest or weed control at 125 ppm in the assay with Phytophthora infestans lay in the range of 60 to 100%.
Consider `Cc1ncnc(NCCC#Cc2ccc(Cl)cc2C(F)(F)F)c1Cl` [compound 360], for which the pest or weed control at 125 µg/mL (in assay [1]; in the assay with Sphaerotheca fuliginea) was 60 to 100% each time. The pest or weed control at 125 ppm in the assay with Phytophthora infestans was in the range of 0 to 60%.
As to `COCc1ccccc1C#CCCNc1ncnc2cc(Cl)ccc12` [compound 312], the pest or weed control at 125 µg/mL (in assay [1]; in the assay with Sphaerotheca fuliginea) was 60 to 100% in each case. Moreover, the pest or weed control at 125 ppm with Phytophthora infestans fell in the range of 0 to 60%.
With `CCCC(CC#Cc1ccccc1)Nc1ncnc2sccc12` (stereo not drawn) [compound 268], the pest or weed control at 125 µg/mL (in assay [1]; with Sphaerotheca fuliginea) was 60 to 100% in each case. Moreover, in the assay with Phytophthora infestans, the pest or weed control at 125 ppm lay in the range of 0 to 60%.
Regarding `C(#Cc1ccc2c(c1)CCO2)CCNc1ncnc2ccccc12` [compound 157], the pest or weed control at 125 µg/mL (in assay [1]; in the assay with Sphaerotheca fuliginea) was 60 to 100% throughout. The pest or weed control at 125 ppm with Phytophthora infestans was in the range of 0 to 60%.
For `FC(F)c1ccccc1C#CCCNc1ncnc2ccccc12` [compound 100], the pest or weed control at 125 µg/mL (in assay [1]; in the assay with Sphaerotheca fuliginea) was 60 to 100% throughout. The pest or weed control at 125 ppm with Phytophthora infestans is 60 to 100%.
